Data set [1] concerns cholesterol fed Syrian Hamsters. Nature of the data set: Body weight reducing effect in cholesterol fed hamsters. In kind it is in vivo, hamster. As to conditions: dose 3 mg/kg, oral, 15 days. On the procedure:
Male Syrian Hamsters are procured from NIN, Hyderabad, India. Animals are housed at DRF animal house under 12 hour light and dark cycle at 25±1° C. with free access to food and water. Animals are maintained with 1% cholesterol containing standard laboratory chow (NIN) from the day of treatment.
The test compounds can be administered orally at 1 to 30 mg/kg/day dose for 15 days. Control group animals are treated with vehicle (Mill Q water, dose 10 ml/kg/day). Body weights are measured on every 3rd day.
(§1) Formulae for Calculation: 1. Percent reduction in Blood sugar triglycerides/total cholesterol will be calculated according to the formula: [formula] OC=Zero day control group value OT=Zero day treated group value TC=Test day control group value TT=Test day treated group value 2. LDL and VLDL cholesterol levels will be calculated according to the formula: [formula] [formula]

Data set [2] relates to hypercholesterolemic Sprague Dawley rats. Nature of the data set: Plasma triglyceride and cholesterol lowering activity in hypercholesterolemic rat models. In kind it is in vivo. Particulars: dose 1 mg/kg, oral, 3 days. Here is the method: Male Sprague Dawley rats (NIN stock) were bred in DRF animal house. Animals were maintained under 12 hour light and dark cycle at 25±1° C. Rats of 180-200 gram body weight range were used for the experiment. Animals are made hypercholesterolemic by feeding 2% cholesterol and 1% sodium cholate mixed with standard laboratory chow [National Institute of Nutrition (NE), Hyderabad, India] for 6 days. Throughout the experimental period the animals were maintained on the same diet (Petit, D., Bonnefis, M. T., Rey, C and Infante, P Effects of ciprofibrate on liver lipids and lipoprotein synthesis in normo- and hyperlipidemic rats. Atherosclerosis. 1988. 74: 215-225).
The test compounds can be administered orally at a dose 0.1 to 30 mg/kg/day for 3 days. Control group was treated with vehicle alone (0.25% Carboxymethylcellulose; dose 10 ml/kg).
The blood samples can be collected in fed state 1 hour after drug administration on 0 and 3 day of compound treatment The blood can be collected from the retro-orbital sinus through heparinised capillary in EDTA containing tubes. After centrifugation, plasma sample will be separated for total cholesterol, HDL and triglyceride estimations. Measurement of plasma triglyceride, total cholesterol and HDL are were done using commercial kits (Dr. Reddy's Laboratory, Diagnostic Division, India). LDL and VLDL cholesterol can be calculated from the data obtained for total cholesterol, HDL and triglyceride. The reduction of various parameters examined are calculated according to the formula.
as §1

The next data set concerns the target T1, hPPARα (Homo sapiens, UniProt Q07869).
T1 construct: expressed in transfected cells; host or cells: HEK-293
T1 sequence (Q07869 239-466 limits assumed): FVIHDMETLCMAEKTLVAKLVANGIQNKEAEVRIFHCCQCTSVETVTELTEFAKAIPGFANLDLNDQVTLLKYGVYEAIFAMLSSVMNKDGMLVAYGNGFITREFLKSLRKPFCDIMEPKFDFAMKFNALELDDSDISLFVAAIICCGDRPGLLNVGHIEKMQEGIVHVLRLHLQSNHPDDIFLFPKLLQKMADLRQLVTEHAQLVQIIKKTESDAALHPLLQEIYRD
Nature of the data set: Determination of hPPARα activity (GAL4-LBD luciferase reporter in HEK-293 cells). As to conditions: compound concentration 50 μM. In kind it is cell-based. On the procedure:
Ligand binding domain of hPPARα was fused to DNA binding domain of Yeast transcription factor Gal 4 in eucaryotic expression vector. Using superfect (Qiagen, Germany) as transfecting reagent HEK-293 cells are transfected with this plasmid and a reporter plasmid harboring the luciferase gene driven by a GAL4 specific promoter. Compound can be added at different concentrations after 42 hrs of transfection and incubated overnight. Luciferase activity as a function of compound binding/activation capacity of PPARα will be measured using Packard Luclite kit (Packard, USA) in Top Count (Ivan Sadowski, Brendan Bell, Peter Broag and Melvyn Hollis. Gene. 1992. 118: 137-141; Superfect Transfection Reagent Handbook. February 1997. Qiagen, Germany).
(In general: In a reporter assay the amount or activity of a reporter protein is the signal.)

The test system of a further data set is C57BL/Ks-db/db mice. Nature of the data set: Efficacy in genetic models: triglyceride lowering in db/db mice. Particulars: dose 1 mg/kg, oral gavage daily for 6 days, plasma. The format is in vivo, mouse. From the text:
Mutation in colonies of laboratory animals and different sensitivities to dietary regimens has made the development of animal models with non-insulin dependent diabetes and hyperlipidemia associated with obesity and insulin resistance possible. Genetic models such as db/db and ob/ob (Diabetes, (1982) 31(1): 1-6) mice and zucker fa/fa rats have been developed by the various laboratories for understanding the pathophysiology of disease and testing the efficacy of new antidiabetic compounds (Diabetes, (1983) 32: 830-838; Annu. Rep. Sankyo Res. Lab. (1994). 46: 1-57). […]
The random blood sugar and triglyceride levels can be measured by collecting blood (100 μl) through orbital sinus, using heparinised capillary in tubes containing EDTA which was centrifuged to obtain plasma. The plasma glucose and triglyceride levels can be measured spectrometrically, by glucose oxidase and glycerol-3-PO4 oxidase/peroxidase enzyme (Dr. Reddy's Lab. Diagnostic Division Kits, Hyderabad, India) methods respectively.
The blood sugar and triglycerides lowering activities of the test compound are calculated according to the formula.
(§2) Formulae for Calculation: 1. Percent reduction in Blood sugar triglycerides/total cholesterol will be calculated according to the formula: [formula] […] LDL and VLDL cholesterol levels will be calculated according to the formula: [formula] […]

Another data set has as its system Swiss albino mice. In words: Plasma triglyceride and total cholesterol lowering activity in Swiss albino mice. The format is in vivo, mouse. As to conditions: dose 3 mg/kg, oral, 6 days. On the procedure: Male Swiss albino mice (SAM) were obtained from NIN and housed in DRF animal house. All these animals are maintained under 12 hour light and dark cycle at 25±1° C. Animals are given standard laboratory chow (NIN, Hyderabad, India) and water, ad libitum. SAM of 20-25 g body weight range and Guinea pigs of 500-700 g body weight range are used (Oliver, P., Plancke, M. O., Marzin, D., Clavey, V., Sauzieres, J and Fruchart, J. C. Effects of fenofibrate, gemfibrozil and nicotinic acid on plasma lipoprotein levels in normal and hyperlipidemic mice. Atherosclerosis. 1988. 70: 107-114).
The test compounds can be administered orally to Swiss albino mice at 0.3 to 30 mg/kg/day dose for 6 days. Control mice are treated with vehicle (0.25% Carboxymethylcellulose; dose 10 ml/kg). The test compounds are administered orally to Guinea pigs at 0.3 to 30 mg/kg/day dose for 6 days. Control animals are treated with vehicle (0.25% Carboxymethylcellulose; dose 5 ml/kg).
The blood samples can be collected in fed state 1 hour after drug administration on 0 and 6 day of treatment. […]
as §2

The next data set deals with T2, hPPARγ1 (Homo sapiens, UniProt P37231).
T2 construct: expressed in transfected cells; host or cells: HEK-293
T2 sequence (P37231 238-503 limits assumed): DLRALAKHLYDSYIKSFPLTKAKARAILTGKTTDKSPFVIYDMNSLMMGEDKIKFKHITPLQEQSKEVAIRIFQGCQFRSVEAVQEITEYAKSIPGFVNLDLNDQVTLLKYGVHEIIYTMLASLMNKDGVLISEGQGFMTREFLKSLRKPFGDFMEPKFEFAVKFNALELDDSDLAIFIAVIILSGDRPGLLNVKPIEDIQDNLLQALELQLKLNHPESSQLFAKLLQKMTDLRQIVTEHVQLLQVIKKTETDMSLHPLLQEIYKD
Nature of the data set: Determination of hPPARγ activity (GAL4-LBD luciferase reporter in HEK-293 cells). The format is cell-based. Particulars: compound concentration 1 μM. Here is the method:
Ligand binding domain of hPPARγ1 is fused to DNA binding domain of Yeast transcription factor GAL4 in eucaryotic expression vector. Using lipofectamine (Gibco BRL, USA) as transfecting reagent HEK-293 cells are transfected with this plasmid and a reporter plasmid harboring the luciferase gene driven by a GAL4 specific promoter. Compound can be added at 1 μM. concentration after 48 hrs of transfection and incubated overnight Luciferase activity as a function of drug binding/activation capacity of PPARγ1 will be measured using Packard Luclite kit (Packard, USA) in Packard Top Count (Ivan Sadowski, Brendan Bell, Peter Broag and Melvyn Hollis. Gene. 1992. 118:137-141; Guide to Eukaryotic Transfections with Cationic Lipid Reagents. Life Technologies, GIBCO BRL, USA).

Compound `CCOC(=O)C(C)(C)Oc1ccc(OC/C=C(\C)c2ccc3c(c2)Cc2ccccc2-3)cc1` [Example 7] displayed a melting point of 155 to 158 °C.

`CCOC(=O)C1(Oc2ccc(OC/C=C(\C)c3ccc(-c4ccccc4)cc3)cc2)CCCC1` [Example 23] yielded a melting point of 112 to 114 °C.

`C/C(=C\COc1ccc(OC(C)(C)C(=O)O)cc1)c1ccc(-c2ccccc2)cc1` [Example 25, 2-[4-(3-Biphenyl-4-yl-but-2-enyloxy)phenoxy]-2-methyl propanoic acid]: in data set [1], the “Reduction in Body weight (%)” value worked out at 22%, the “Reduction in Total Cholesterol (%)” value is 55% and the “Reduction in Triglyceride (%)” value is 45%.

`CC(C)C(Sc1ccc(OCCCc2ccc(OS(C)(=O)=O)cc2)cc1)C(=O)O` (centres unmarked) [Example 28] registered a melting point of 115 to 118 °C.

For `CC(C)(Oc1ccc(OCCc2ccc(-c3ccccc3)cc2)cc1)C(=O)O` [Example 30], the melting point was 138 to 140 °C.

For `C/C(=C\COc1ccc(OC(C)(C)C(=O)O)cc1)c1ccc2c(c1)Cc1ccccc1-2` [Example 31], the melting point fell in the range of 155 to 158 °C.

Regarding `CCN1c2ccccc2Oc2ccc(/C(C)=C/COc3ccc(OC(C)(C)C(=O)O)cc3)cc21` [Example 32], the melting point is 114 to 116 °C.

Turning to `C/C(=C\CNc1ccc(OC(C)(C)C(=O)O)cc1)c1ccc(-c2ccccc2)cc1` [Example 35], the melting point is 184 to 188 °C.

Compound `CCC(C)(Oc1ccc(OC/C=C(\C)c2ccc(-c3ccc(F)cc3)cc2)cc1)C(=O)O` (centres unmarked) [Example 36] yielded a melting point of 122 to 125 °C.

Take `CCC(C)(Oc1ccc(OC/C=C(\C)c2ccc(-c3ccccc3)cc2)cc1)C(=O)O` (centres unmarked) [Example 37]: the melting point lay within 114 to 117 °C. Also, in data set [2] (LDL calculated from total cholesterol, HDL and triglyceride), the “Reduction in Low Density Lipoprotien (%)” value is 64%. Moreover, in data set [2] (plasma), the “Increase in High Density Lipoprotien (%)” value came out at 70%, the “Reduction in Total Cholesterol (%)” value is 60% and the “Triglyceride Lowering (%)” value stood at 55%. The compound further returned a PPARα on hPPARα of 12.2. In addition, the “Triglyceride Lowering (%)” value in the data set with C57BL/Ks-db/db mice was found to be 52%. In addition, the “Triglyceride Lowering (%)” value with Swiss albino mice came to 71%. The same compound displayed a PPARγ at hPPARγ1 of 2.8.

Consider `C/C(=C\COc1ccc(OC(C)(C)C(=O)O)cc1)c1ccc(-c2cc(Cl)cc(Cl)c2)cc1` [Example 38], for which the melting point lay in the range of 52 to 54 °C.

`C/C(=C\COc1ccc(OC(C)(C)C(=O)O)cc1)c1ccc(-c2ccc(C(F)(F)F)cc2)cc1` [Example 40] gave a melting point of 150 to 154 °C. For the same compound, at hPPARα, the PPARα was 12.6. The compound also displayed a PPARγ at hPPARγ1 of 1.3.

In turn, `C/C(=C\COc1ccc(SC(C)(C)C(=O)O)cc1)c1ccc(-c2ccccc2)cc1` [Example 41] displayed a melting point of 162 to 165 °C.

Compound `C/C(=C\COc1ccc(SC(C)(C)C(=O)O)cc1)c1ccc(-c2ccc(C(F)(F)F)cc2)cc1` [Example 42] returned a melting point of 142 to 146 °C.

With `CC(C)(Oc1ccc(OC/C=C/c2ccc(-c3ccccc3)cc2)cc1)C(=O)O` [Example 43], the melting point was 172 to 174 °C.

On to `C/C(=C\COc1ccc(OC(C(=O)O)C(C)C)cc1)c1ccc(-c2ccccc2)cc1` (centres unmarked) [Example 44], for which the melting point was in the range of 136 to 140 °C.

`CC(C)(Oc1ccc(OC/C=C/c2ccc(OS(C)(=O)=O)cc2)cc1)C(=O)O` [Example 45] yielded a melting point of 112 to 114 °C.

`C/C(=C\COc1ccc(OC2(C(=O)O)CCCC2)cc1)c1ccc(-c2ccccc2)cc1` [Example 47] showed a melting point of 142 to 144 °C.

In the case of `CC(C)(Oc1ccc(OCCCc2ccc(OS(C)(=O)=O)cc2)cc1)C(=O)O` [Example 48], the melting point was 64 to 66 °C.

As to `CC(CCOc1ccc(OC(C)(C)C(=O)O)cc1)c1ccc(-c2ccccc2)cc1` (centres unmarked) [Example 49], the melting point was in the range of 120 to 122 °C.

A word on the melting point: it is the temperature, or range, at which the solid turns liquid.

Source of the values: patent publication US20070043035A1, “Novel compounds and their use in medicine: process for their preparation and pharmaceutical compositions containing them” (priority 2003, published 2007).
